Here are results for 25 molecules from publication PMC10056611, “Synthesis and Biological Evaluation of 3-Amino-4,4-Dimethyl Lithocholic Acid Derivatives as Novel, Selective, and Cellularly Active Allosteric SHP1 Activators” (Molecules, 2023).

In general, EC50 refers to the concentration that produces a half-maximal response. A word on the melting point: it is the temperature of the solid-liquid transition.

Data set [1] has as its target SHP1 (Homo sapiens, UniProt P29350). The experiment in a line: SHP1 enzyme assay (DiFMUP fluorogenic substrate), activation. It is filed as biochemical. To be noted: DiFMUP assay; for EC50 / Maximum Activation Fold: mean ± SEM. From the text:
The SHP1-activating effects of the synthetic compounds were examined by the 6,8-difluoro-4-methylumbelliferyl phosphate (DiFMUP) assay.
The proteins SHP1 and SHP2, containing a GST-tag, were expressed in E. coli. 6,8-Difluoro-4-methylumbelliferyl phosphate (DiFMUP) was used as the fluorogenic substrate. Fluorescence data were collected by the Envision (PerkinElmer, Waltham, MA, USA) plate reader, using excitation and emission wavelengths of 358 and 455 nm, respectively. A sigmoidal dose-response curve was fitted to the data, and the EC50 values were calculated using GraphPad Prism. In the data processing, the fitting and curves were calculated using nonlinear regression, and the fold value of the compound was calculated using the software GraphPad Prism 8. The folds were obtained according to the equation: Y = Bottom + (Top-Bottom)/(1 + 10^((LogEC50-X) × HillSlope)). The data represent mean values ± standard error of the mean (SEM) of eight-point experiments, each performed in triplicates from three independent experiments.

“And” between values parts separate entries of the source, which are not always exact repeats. Equal entries are not always repeated.

Chain of SHP1 (P29350 whole entry): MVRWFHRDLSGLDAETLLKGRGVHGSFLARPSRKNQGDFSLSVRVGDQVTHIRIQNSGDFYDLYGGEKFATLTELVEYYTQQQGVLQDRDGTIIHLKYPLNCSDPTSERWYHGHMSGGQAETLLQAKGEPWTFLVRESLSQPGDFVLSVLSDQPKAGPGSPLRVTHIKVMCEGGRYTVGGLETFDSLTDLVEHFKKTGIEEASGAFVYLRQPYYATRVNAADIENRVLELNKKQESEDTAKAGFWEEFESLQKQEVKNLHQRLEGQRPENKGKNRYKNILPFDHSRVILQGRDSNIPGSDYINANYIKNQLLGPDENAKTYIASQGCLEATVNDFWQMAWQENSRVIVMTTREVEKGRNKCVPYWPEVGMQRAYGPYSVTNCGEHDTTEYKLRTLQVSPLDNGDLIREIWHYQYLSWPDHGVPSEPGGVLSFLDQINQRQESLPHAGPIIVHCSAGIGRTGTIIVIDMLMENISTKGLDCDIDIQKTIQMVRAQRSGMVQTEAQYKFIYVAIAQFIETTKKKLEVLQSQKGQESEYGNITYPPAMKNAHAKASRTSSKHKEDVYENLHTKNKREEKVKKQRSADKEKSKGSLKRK

`C[C@H](CCCO)[C@H]1CCC2C3CC=C4C(C)(C)C(NC(=O)Nc5ccc(Cl)c(C(F)(F)F)c5)CC[C@]4(C)C3CC[C@@]21C` (stereo partly drawn) [Compound 5ax, 1-(4-chloro-3-(trifluoromethyl)phenyl)-3-((10R,13R,17R)-17-((R)-5-hydroxypentan-2-yl)-4,4,10,13-tetramethyl-2,3,4,7,8,9,10,11,12,13,14,15,16,17-tetradecahydro-1H-cyclopenta[a]phenanthren-3-yl)urea] returned a melting point of 221.1 to 223.7 °C. In data set [1], the “SHP1 activity (in words)” value is on record as “no activity” and the half-maximal effective concentration (EC50) was greater than 50 µM.

`C[C@H](CCC(C)(C)O)[C@H]1CCC2C3CC=C4C(C)(C)C(N)CC[C@]4(C)C3CC[C@@]21C` (stereo partly drawn) [Compound 5as, (5R)-5-((10R,13R,17R)-3-amino-4,4,10,13-tetramethyl-tetradecahydro-1H-cyclopenta[a]phenanthren-17-yl)-2-methylhexan-2-ol]: the melting point was 215.2 to 217.6 °C. In data set [1], the EC50 came out at 22 ± 3.84 µM and the “Maximum Activation Fold” value is recorded as 5.73 ± 0.32 fold.

Consider `CCCC(O)(CCC)CC[C@@H](C)[C@H]1CCC2C3CC=C4C(C)(C)C(N)CC[C@]4(C)C3CC[C@@]21C` (stereo partly drawn) [Compound 5au], for which the melting point lay in the range of 242.6 to 244.9 °C. Also, in data set [1], the EC50 is 24.4 ± 3.61 µM and the “Maximum Activation Fold” value was found to be 6.42 ± 0.28 fold.

`C[C@H](CCCO)[C@H]1CCC2C3CC=C4C(C)(C)C(NCCCCl)CC[C@]4(C)C3CC[C@@]21C` (stereo partly drawn) [Compound 5ad] returned a melting point of 162.7 to 165.5 °C. A half-maximal response in data set [1] (EC50) required 47.34 ± 0.34 µM.

`C[C@H](CCCO)[C@H]1CCC2C3C(=NO)C=C4C(C)(C)C(N)CC[C@]4(C)C3CC[C@@]21C` (stereo partly drawn) [Compound 5ah, (10R,13R,17R)-3-amino-17-((R)-5-hydroxypentan-2-yl)-4,4,10,13-tetramethyl-tetradecahydro-7H-cyclopenta[a]phenanthren-7-oxime] gave a melting point of 218.3 to 219.9 °C. Also, in data set [1], the response was half-maximal at 34.4 ± 2.47 µM (EC50) and the “Maximum Activation Fold” value is on record as 2.13 ± 0.28 fold.

Regarding `CCCNC1CC[C@@]2(C)C(=CCC3C2CC[C@@]2(C)C3CC[C@@H]2[C@H](C)CCCO)C1(C)C` (stereo partly drawn) [Compound 5ae, (4R)-4-((10R,13R,17R)-4,4,10,13-tetramethyl-3-(propylamino)-tetradecahydro-1H-cyclopenta[a]phenanthren-17-yl)pentan-1-ol], the melting point was in the range of 147.5 to 150.4 °C. Further, the EC50 in data set [1] is greater than 50 µM.

`C[C@H](CO)[C@H]1CCC2C3CC=C4C(C)(C)C(N)CC[C@]4(C)C3CC[C@@]21C` (stereo partly drawn) [Compound 5aw] returned a melting point of 170.6 to 173.8 °C. In data set [1], the EC50 turned out to be 35.5 ± 3.15 µM.

The molecule `CCC(O)CC[C@@H](C)[C@H]1CCC2C3CC=C4C(C)(C)C(N)CC[C@]4(C)C3CC[C@@]21C` (stereo partly drawn) [Compound 5ao] gave a melting point greater than 300 °C. In addition, in data set [1], it took 15.5 ± 4.38 µM to reach a half-maximal effect (EC50) and the “Maximum Activation Fold” value stood at 6.59 ± 0.48 fold.

Consider `C[C@H](CCCO)[C@H]1CCC2C3C(O)C=C4C(C)(C)C(N)CC[C@]4(C)C3CC[C@@]21C` (stereo partly drawn) [Compound 5ai], for which the melting point was 171.4 to 173.2 °C. Besides, the EC50 in data set [1] was greater than 50 µM.

In turn, `CC(C)C(O)CC[C@@H](C)[C@H]1CCC2C3CC=C4C(C)(C)C(N)CC[C@]4(C)C3CC[C@@]21C` (stereo partly drawn) [Compound 5aq, (6R)-6-((10R,13R,17R)-3-amino-4,4,10,13-tetramethyl-tetradecahydro-1H-cyclopenta[a]phenanthren-17-yl)-2-methylheptan-3-ol] displayed a melting point greater than 300 °C. In data set [1], a half-maximal response (EC50) required 22.1 ± 3.73 µM and the “Maximum Activation Fold” value stood at 6.32 ± 0.34 fold.

`C[C@H](CCCO)[C@H]1CCC2C3CC=C4C(C)(C)C(N5CCC5)CC[C@]4(C)C3CC[C@@]21C` (stereo partly drawn) [Compound 5af] came in with a melting point of 174.9 to 177.6 °C. The molecule further had an EC50 in data set [1] greater than 50 µM.

The molecule `C[C@H](CCCOc1ccc(NC(=O)Nc2ccc(Cl)c(C(F)(F)F)c2)cc1)[C@H]1CCC2C3CC=C4C(C)(C)C(N)CC[C@]4(C)C3CC[C@@]21C` (stereo partly drawn) [Compound 5ay] came in with a melting point of 192.3 to 194.5 °C. For the same molecule, in data set [1], the EC50 is 2.05 ± 0.14 µM and the “Maximum Activation Fold” value came out at 5.54 ± 0.24 fold.

Molecule `C[C@H](CCCO)[C@H]1CCC2C3CC=C4C(C)(C)C(N)CC[C@]4(C)C3CC[C@@]21C` (stereo partly drawn) [Compound 5aa] gave a melting point of 163.5 to 166.3 °C. Further, in data set [1], the EC50 stood at 19.2 ± 4.59 µM and the “Maximum Activation Fold” value was 6.03 ± 0.87 fold.

`C[C@H](CCCO)[C@H]1CCC2C3CC=C4C(C)(C)C(NCCO)CC[C@]4(C)C3CC[C@@]21C` (stereo partly drawn) [Compound 5ab]: the melting point fell in the range of 184.3 to 187.5 °C. Also, the response in data set [1] was half-maximal at 39.1 ± 3.7 µM (EC50).

With `CNC(=O)CC[C@@H](C)[C@H]1CCC2C3CC=C4C(C)(C)C(N)CC[C@]4(C)C3CC[C@@]21C` (stereo partly drawn) [Compound 5al], the melting point is greater than 300 °C. Also, in data set [1], the EC50 came out at 40.5 ± 6.58 µM and the “Maximum Activation Fold” value came out at 6.42 ± 0.28 fold.

Molecule `CCC(O)(CC)CC[C@@H](C)[C@H]1CCC2C3CC=C4C(C)(C)C(N)CC[C@]4(C)C3CC[C@@]21C` (stereo partly drawn) [Compound 5at] came in with a melting point greater than 300 °C. In data set [1], the EC50 came to 12.9 ± 0.3 µM and the “Maximum Activation Fold” value is 6.50 ± 0.12 fold.

In turn, `C=CCC(O)CC[C@@H](C)[C@H]1CCC2C3CC=C4C(C)(C)C(N)CC[C@]4(C)C3CC[C@@]21C` (stereo partly drawn) [Compound 5ar, (7R)-7-((10R,13R,17R)-3-amino-4,4,10,13-tetramethyl-tetradecahydro-1H-cyclopenta[a]phenanthren-17-yl)oct-1-en-4-ol] displayed a melting point of 250.4 to 252.6 °C. Moreover, in data set [1], the EC50 was 12.9 ± 0.75 µM and the “Maximum Activation Fold” value is recorded as 6.94 ± 0.17 fold.

Turning to `CCCC(O)CC[C@@H](C)[C@H]1CCC2C3CC=C4C(C)(C)C(N)CC[C@]4(C)C3CC[C@@]21C` (stereo partly drawn) [Compound 5ap], the melting point is greater than 300 °C. Also, in data set [1], a half-maximal effect (EC50) was put at 38.1 ± 3.76 µM and the “Maximum Activation Fold” value was 6.65 ± 0.35 fold.

On to `C[C@H](CCCO)[C@H]1CCC2C3=CC=C4C(C)(C)C(N)CC[C@]4(C)C3CC[C@@]21C` (stereo partly drawn) [Compound 5ak, (4R)-4-((10R,13R,17R)-3-amino-4,4,10,13-tetramethyl-2,3,4,9,10,11,12,13,14,15,16,17-dodecahydro-1H-cyclopenta[a]phenanthren-17-yl)pentan-1-ol], for which the melting point lay in the range of 179.5 to 181.3 °C. Also, in data set [1], the EC50 was 20 ± 3.34 µM; the “Maximum Activation Fold” value was 7.74 fold and 7.74 ± 0.20 fold.

The molecule `C[C@H](CCCO)[C@H]1CCC2C3CC=C4C(C)(C)C(NCCCO)CC[C@]4(C)C3CC[C@@]21C` (stereo partly drawn) [Compound 5ac] gave a melting point of 183.5 to 186.8 °C. For the same molecule, the EC50 in data set [1] was 30.7 ± 3.8 µM.

Take `C=CCC(O)(CC=C)CC[C@@H](C)[C@H]1CCC2C3CC=C4C(C)(C)C(N)CC[C@]4(C)C3CC[C@@]21C` (stereo partly drawn) [Compound 5av, (7R)-4-allyl-7-((10R,13R,17R)-3-amino-4,4,10,13-tetramethyl-tetradecahydro-1H-cyclopenta[a]phenanthren-17-yl)oct-1-en-4-ol]: the melting point fell in the range of 235.5 to 237.4 °C. In addition, in data set [1], a half-maximal response (EC50) required 35.8 ± 1.92 µM and the “Maximum Activation Fold” value was 5.90 ± 0.42 fold.

As for `CC(O)CC[C@@H](C)[C@H]1CCC2C3CC=C4C(C)(C)C(N)CC[C@]4(C)C3CC[C@@]21C` (stereo partly drawn) [Compound 5an], the melting point is greater than 300 °C. Moreover, in data set [1], the EC50 worked out at 17.6 ± 1.75 µM and the “Maximum Activation Fold” value came out at 6.33 ± 0.01 fold.

Regarding `CCCNCCC[C@@H](C)[C@H]1CCC2C3CC=C4C(C)(C)C(N)CC[C@]4(C)C3CC[C@@]21C` (stereo partly drawn) [Compound 5am, (10R,13R,17R)-4,4,10,13-tetramethyl-17-((R)-5-(propylamino)pentan-2-yl)-tetradecahydro-1H-cyclopenta[a]phenanthren-3-amine], the melting point is greater than 300 °C. For the same molecule, in data set [1], the EC50 was greater than 50 µM.

As to `C[C@H](CCCO)[C@H]1CCC2C3C(=O)C=C4C(C)(C)C(N)CC[C@]4(C)C3CC[C@@]21C` (stereo partly drawn) [Compound 5ag, (10R,13R,17R)-3-amino-17-((R)-5-hydroxypentan-2-yl)-4,4,10,13-tetramethyl-tetradecahydro-7H-cyclopenta[a]phenanthren-7-one], the melting point was in the range of 151.3 to 153.7 °C. Besides, in data set [1], the response was half-maximal at 33.8 ± 2.93 µM (EC50) and the “Maximum Activation Fold” value came to 1.84 ± 0.11 fold.

In the case of `C[C@H](CCCO)[C@H]1CCC2C3C(N)C=C4C(C)(C)C(N)CC[C@]4(C)C3CC[C@@]21C` (stereo partly drawn) [Compound 5aj], the melting point fell in the range of 178.7 to 180.2 °C. The molecule also yielded an EC50 in data set [1] greater than 50 µM.
